Experimental data taken from ChEMBL document CHEMBL1201862, “PubChem BioAssay data set” (2004).
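1) Cells in 96-well plates. 2) Compound, 48 h, 5 concentrations. 3) Linear interpolation between surrounding doses. 4) Unreached endpoint = highest concentration. GI50 marks 50% less growth.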 Active and inactive are the calls of the source. Cut-off read from the data, not from the text of the source: active = GI50 up to about 1.1 µM and inactive = higher.

Assays:
Assay in all cases: inhibition of tumour cell growth, NCI panel, 48 h
A549 = test system: A549
HCC 2998 = test system: HCC 2998
786-0 = test system: 786-0
NCI-H522 = test system: NCI-H522
T47D = test system: T47D
IGROV-1 = test system: IGROV-1
HL-60 = test system: HL-60
SK-MEL-28 = test system: SK-MEL-28
SNB-19 = test system: SNB-19
SF-268 = test system: SF-268
SR = test system: SR
PC-3 = test system: PC-3
ACHN = test system: ACHN
TK-10 = test system: TK-10
MDA-N = test system: MDA-N
OVCAR-5 = test system: OVCAR-5
RPMI-8226 = test system: RPMI-8226
Hs-578T = test system: Hs-578T
KM12 = test system: KM12
OVCAR-4 = test system: OVCAR-4
EKVX = test system: EKVX
OVCAR-8 = test system: OVCAR-8
NCI-H460 = test system: NCI-H460
NCI-H226 = test system: NCI-H226
DU-145 = test system: DU-145
COLO 205 = test system: COLO 205
K562 = test system: K562
SF-295 = test system: SF-295
SW-620 = test system: SW-620
SK-OV-3 = test system: SK-OV-3
SK-MEL-5 = test system: SK-MEL-5
HCT-15 = test system: HCT-15
MOLT-4 = test system: MOLT-4
NCI-H23 = test system: NCI-H23
LOX IMVI = test system: LOX IMVI
HOP-92 = test system: HOP-92
UACC-62 = test system: UACC-62
MCF7 = test system: MCF7
MDA-MB-435 = test system: MDA-MB-435
SN12C = test system: SN12C
HOP-62 = test system: HOP-62
NCI/ADR-RES = test system: NCI/ADR-RES
UO-31 = test system: UO-31
HCT-116 = test system: HCT-116
SNB-75 = test system: SNB-75
CAKI-1 = test system: CAKI-1
RXF 393 = test system: RXF 393
A498 = test system: A498
Malme-3M = test system: Malme-3M
M14 = test system: M14
OVCAR-3 = test system: OVCAR-3
SF-539 = test system: SF-539
MDA-MB-231 = test system: MDA-MB-231
U-251 = test system: U-251
BT-549 = test system: BT-549
HT-29 = test system: HT-29

Measured: GI50

CNC(=O)CNC(=O)C(Cc1ccc(NC(=O)CCCCC(C)=O)cc1)NC(=O)C(CCC(=O)OCc1ccccc1)NC(=O)OC(C)(C)C (stereo unspecified)
> 100 µM: HCT-15
inactive: A549 > 100 µM | HCC 2998 > 100 µM | 786-0 > 100 µM | NCI-H522 > 100 µM | T47D > 100 µM | IGROV-1 > 100 µM | HL-60 > 100 µM | SK-MEL-28 > 100 µM | SNB-19 > 100 µM | SF-268 > 100 µM | SR > 100 µM | PC-3 > 100 µM | ACHN > 100 µM | TK-10 > 100 µM | MDA-N > 100 µM | OVCAR-5 > 100 µM | RPMI-8226 > 100 µM | Hs-578T > 100 µM | KM12 > 100 µM | OVCAR-4 > 100 µM | EKVX > 100 µM | OVCAR-8 > 100 µM | NCI-H460 > 100 µM | NCI-H226 > 100 µM | DU-145 > 100 µM | COLO 205 > 100 µM | K562 > 100 µM | SF-295 > 100 µM | SW-620 > 100 µM | SK-OV-3 > 100 µM | SK-MEL-5 > 100 µM | MOLT-4 > 100 µM | NCI-H23 > 100 µM | LOX IMVI > 100 µM | HOP-92 > 100 µM | UACC-62 > 100 µM | MCF7 > 100 µM | MDA-MB-435 > 100 µM | SN12C > 100 µM | HOP-62 > 100 µM | NCI/ADR-RES > 100 µM | UO-31 > 100 µM | HCT-116 > 100 µM | SNB-75 > 100 µM | CAKI-1 > 100 µM | RXF 393 > 100 µM | A498 48.3 µM | Malme-3M > 100 µM | M14 > 100 µM | OVCAR-3 > 100 µM | SF-539 > 100 µM | MDA-MB-231 > 100 µM | U-251 > 100 µM | BT-549 > 100 µM | HT-29 > 100 µM
